Results from patent US10624920B2, “Use of alginate oligomers in combating biofilms” (Algipharma AS, priority 2007, dated 2020).

Assays:
Format in all cases: cell-based
[1] = tested on: Pseudomonas aeruginosa biofilms; test: MBEC assay, overnight Pseudomonas biofilms pretreated overnight with G-fragments and mucin, then antibiotic; conditions: overnight biofilm, mucin 2.5 g/L
Description: (§1) The MBEC method used was adapted from Moskowitz S M, et al (2004) J Clin Microbiol 42:1915-1922. After retrieval from −80° C. storage, bacterial isolates were grown on BA and then grown overnight in TSB. After dilution of the bacterial cultures to 0.5 McFarland in CAMHB with or without mucin (2.5 g/l), 100 μl was transferred to the wells of a flat-bottom 96-well microtiter plate. In Example 3, bacterial cultures were diluted to 0.5 McFarland in CAMHB with mucin (2.5 g/1) and alginate and 100 μl was transferred to the wells of a flat-bottom 96-well microtiter plate
(§2) Plates were then wrapped in parafilm to prevent dehydration and incubated at 37° C. to allow biofilm formation. Incubation times and conditions varied as described below.
(§3) After biofilm formation, planktonic cells and supernatant were removed and each well was then washed with sterile phosphate buffered saline (PBS). After washing, cells were treated with combinations of alginates and/or antibiotics with or without mucin (2.5 g/l) in 100 μl CAMHB. Plates were then wrapped in parafilm and incubated at 37° C. with gentle tilting. Incubation times and conditions varied as described below. The antibiotics and concentration ranges used are shown below.
(§4) Wells were washed with PBS and 100 μl of each concentration of a serial dilution of antibiotic in CAMHB was then added in duplicate. Plates were again wrapped in parafilm and incubated at 37° C. with gentle tilting overnight.
(§5) In all MBEC assays final cell number was assessed as follows. Wells were washed with PBS and biofilms resuspended in 100 μl CAMHB by vigorous pipetting. The optical density at 620 nm (OD620) was measured on a microplate reader (FLUOstar OPTIMA, BMG LABTECH) immediately (0 h) and after incubation at 37° C. at 6 h and 24 h.
(§6) The MBEC value is that concentration of antibiotic that inhibits all growth of the bacteria in the test sample. Bacterial growth is measured by an increase in the absorbance of the sample. Therefore, a reduction in MBEC value is an indication that the sensitivity of the sample to the antibiotic has been increased (i.e. less antibiotic is needed to prevent bacterial growth).
The MBEC assay described above was followed. Biofilms were generated in plates overnight without mucin. Following a PBS wash, the biofilms were incubated with 0, 1, 2 or 6% G-fragments and mucin overnight. After washing with PBS cells were incubated overnight with antibiotics (amikacin or oxytetracycline) and without mucin. […] 6 hr MBEC values for amikacin and oxytetracycline were halved by 1% G fragments and quartered by 2 and 6% G fragments. 24 hr MBEC values for oxytetracycline were halved by all concentrations of G fragments. 24 hr MBEC values for amikacin were reduced although it was not possible to quantify this reduction.

[2] = tested on: Pseudomonas aeruginosa biofilms; test: MBEC assay, Pseudomonas biofilms generated 6 hr with mucin, pretreated overnight with alginate oligomer and mucin, then antibiotic; conditions: 6 hr biofilm with mucin
Description: as §1, §2, §3, §4, §5, §6
The MBEC assay described above was followed with mucin present throughout. Biofilms were generated in the presence of mucin during a 6 hour incubation, washed and incubated with G-fragments and mucin overnight. After washing with PBS the cultures were exposed to antibiotics (amikacin, tobramycin, oxytetracycline or a combination of amikacin and oxytetracycline) without mucin. Results are shown graphically in FIG. 4 and in tabulated form in Tables 6 and 7. […] In fact, 6% G fragments caused a the 6 hr MBEC value for oxytetracycline to drop to ⅛th of the control value. The 24 hr MBEC values for amikacin and tobramycin were halved. […]

[3] = tested on: Pseudomonas aeruginosa biofilms; test: MBEC assay, Pseudomonas biofilms generated overnight in the presence of mucin and G-fragments, then antibiotic
Description: as §1, §2, §3, §4, §5, §6
The MBEC assay described above was followed. Biofilms were generated in plates overnight in the presence of mucin and 0, 1, 2 or 6% G fragments. After washing, biofilms were exposed to oxytetracycline (without mucin) overnight. […] 6 hr MBEC values were halved when 2% and 6% G fragments were used.

[4] = exposed to 0 G-fragments overnight
[5] = exposed to 6% G-fragments overnight
[6] = biofilm generated with mucin 2.5 g/L and G-fragments 0
[7] = biofilm generated with mucin 2.5 g/L and G-fragments 1%
[8] = biofilm generated with mucin 2.5 g/L and G-fragments 2%
[9] = biofilm generated with mucin 2.5 g/L and G-fragments 6%

Q: For `NCC[C@H](O)C(=O)N[C@@H]1C[C@H](N)[C@@H](O[C@H]2O[C@H](CN)[C@@H](O)[C@H](O)[C@H]2O)[C@H](O)[C@H]1O[C@H]1O[C@H](CO)[C@@H](O)[C@H](N)[C@H]1O` [Amikacin, amikacin], which “MBEC value at 6 hours after overnight exposure to antibiotic” value (“MBEC value at 6 hours” below) ([1]; G-fragments 0) is on record?
A: 2048 µg/mL

Q: What about the “MBEC value at 24 hours after overnight exposure to antibiotic” value (shortened to “MBEC value at 24 hours”) ([1]; G-fragments 0) of the same compound?
A: >4096 µg/mL

Q: What about the “MBEC value at 6 hours” value ([1]; G-fragments 1%) of the same compound?
A: 1024 µg/mL

Q: What about the “MBEC value at 24 hours” value ([1]; G-fragments 1%) of the same compound?
A: 4096 µg/mL

Q: And the “MBEC value at 6 hours” value ([1]; G-fragments 2%)?
A: 512 µg/mL

Q: And the “MBEC value at 24 hours” value ([1]; G-fragments 2%)?
A: 4096 µg/mL

Q: What about the “MBEC value at 6 hours” value ([1]; G-fragments 6%) of the same compound?
A: 512 µg/mL

Q: And the “MBEC value at 24 hours” value ([1]; G-fragments 6%)?
A: 4096 µg/mL

Q: What about the “MBEC value at 6 hr after overnight exposure to antibiotic” value (from here on “MBEC value at 6 hr”) [2, 4] of the same compound?
A: 64 µg/mL

Q: What about the “MBEC value at 24 hr after overnight exposure to antibiotic” value (“MBEC value at 24 hr” for short) [2, 4] of the same compound?
A: >4096 µg/mL

Q: What about the “MBEC value at 6 hr” value [2, 5] of the same compound?
A: 16 µg/mL

Q: What about the “MBEC value at 24 hr” value [2, 5] of the same compound?
A: 4096 µg/mL

Q: What does the source list for `NC[C@H]1O[C@H](O[C@H]2[C@H](O)[C@@H](O[C@H]3O[C@H](CO)[C@@H](O)[C@H](N)[C@H]3O)[C@H](N)C[C@@H]2N)[C@H](N)C[C@@H]1O` [Tobramycin, tobramycin]?
A: MBEC value at 6 hr after overnight exposure to antibiotic [2, 4]: 32 µg/mL; MBEC value at 24 hr after overnight exposure to antibiotic [2, 4]: 512 µg/mL; MBEC value at 6 hr after overnight exposure to antibiotic [2, 5]: 8 µg/mL; MBEC value at 24 hr after overnight exposure to antibiotic [2, 5]: 256 µg/mL

Q: For `CN(C)[C@@H]1C(O)=C(C(N)=O)C(=O)[C@@]2(O)C(O)=C3C(=O)c4c(O)cccc4[C@@](C)(O)[C@H]3[C@H](O)[C@@H]12` [Oxytetracycline, oxytetracycline], which “MBEC value at 6 hours” value ([1]; G-fragments 0) is on record?
A: 512 µg/mL

Q: What about the “MBEC value at 24 hours” value ([1]; G-fragments 0) of the same compound?
A: 2048 µg/mL

Q: And the “MBEC value at 6 hours” value ([1]; G-fragments 1%)?
A: 256 µg/mL

Q: What about the “MBEC value at 24 hours” value ([1]; G-fragments 1%) of the same compound?
A: 1024 µg/mL

Q: And the “MBEC value at 6 hours” value ([1]; G-fragments 2%)?
A: 128 µg/mL

Q: What about the “MBEC value at 24 hours” value ([1]; G-fragments 2%) of the same compound?
A: 1024 µg/mL

Q: What about the “MBEC value at 6 hours” value ([1]; G-fragments 6%) of the same compound?
A: 128 µg/mL

Q: What about the “MBEC value at 24 hours” value ([1]; G-fragments 6%) of the same compound?
A: 1024 µg/mL

Q: What about the “MBEC value at 6 hr” value [3, 6] of the same compound?
A: 512 µg/mL

Q: And the “MBEC value at 24 hr” value [3, 6]?
A: 4096 µg/mL

Q: What about the “MBEC value at 6 hr” value [3, 7] of the same compound?
A: 512 µg/mL

Q: What about the “MBEC value at 24 hr” value [3, 7] of the same compound?
A: 2048 µg/mL

Q: And the “MBEC value at 6 hr” value [3, 8]?
A: 256 µg/mL

Q: And the “MBEC value at 24 hr” value [3, 8]?
A: 2048 µg/mL

Q: What about the “MBEC value at 6 hr” value [3, 9] of the same compound?
A: 256 µg/mL

Q: What about the “MBEC value at 24 hr” value [3, 9] of the same compound?
A: 2048 µg/mL

Q: What about the “MBEC value at 6 hr” value [2, 4] of the same compound?
A: 512 µg/mL

Q: And the “MBEC value at 24 hr” value [2, 4]?
A: 1024 µg/mL

Q: What about the “MBEC value at 6 hr” value [2, 5] of the same compound?
A: 64 µg/mL

Q: What about the “MBEC value at 24 hr” value [2, 5] of the same compound?
A: 1024 µg/mL
